Measurements taken from patent US9139615B2, “High-affinity, dimeric inhibitors of PSD-95 as efficient neuroprotectants against ischemic brain damage and for treatment of pain” (University of Copenhagen, priority 2011, dated 2015).
Where no end group is shown, it is not given here.

Test: Blood-brain barrier permeability of fluorescent analogues
Type: in vivo, mice
Conditions: mouse, in vivo, iv
Method: VI.ii. Blood-brain Barrier Permeability. […] After injection of the compounds, the mice are perfused with paraformaldehyde and the brains are carefully removed, post-fixed in paraformaldehyde, processed into coronal sections, and quantified for fluorescence (Example 8).
The fluorescent ligands were injected intravenously (3 nmol/g) and the location of the ligands was detected by fluorescence microscopy of coronal brain slices (n=8) mice, was evaluated 2 hours after injection. Two sections of the brain, prior to and two after the anterior commissure (n=5), were selected for BBB permeability analysis. The anterior commissure (Bregma: −0.3) was used as a fix point in the brain in order to analyse anatomically identical brain sections. The intensity of the 5-FAM fluorophore was measured semi-quantitatively using a fluorescence microscopy system (Olympus System Microscope model BX-51, Denmark) with a 10× objective (Olympus 10×/0.15 UPlanApo) connected to a high-resolution microscope digital camera (Olympus model DP70), which transferred images to an image-capturing software (Image Pro Plus software). All images were taken using the same microscope settings and with constant camera exposure time. Intensities were quantified using the ImageJ software.
5-FAM-labeled derivative of Tat-NR2B9c is designated MS23. After injection of the compounds, the mice are perfused with paraformaldehyde and the brains are carefully removed, post-fixed in paraformaldehyde, processed into coronal sections, and quantified for fluorescence.
C57BL/6 mice with 6 hour post-surgical survival time were euthanized by cervical dislocation. C57BL/6 mice with 48 hour post-surgical survival were anesthetized with an overdosed of pentobarbital (the pharmacy of the Faculty of Life Sciences, University of Copenhagen, Denmark) in order to collect blood and tissue samples. All brains were carefully removed, frozen in gaseous CO2 and cut into 6 series of 30 μm coronal cryostat sections and stored at −80° C. until further use. C57BL/6J mice used to investigate the blood-brain barrier (BBB) permeability of AB143, AB145, AB148, and MS23 were deeply anesthetized and perfused through the left ventricle, using 10 ml chilled Soerensens phosphate buffer (SB) ([…], 125 mM Na2HPO4, pH 7.4) followed by 20 mL SB containing 4% paraformaldehyde (PFA). The brains were carefully removed and post-fixed in 4% PFA for 1 hour followed by immersion in SB containing 20% sucrose over night. The brains were frozen on gaseous CO2 and processed into 16 μm coronal cryostat sections.

Sequence: YGRKKRRQRRRKLSSIESDV [Tat-NR2B9c, reference compound]
- entry into brain, fluorescence microscopy of coronal brain slices: enter the brain
